Assay results: ChEMBL document CHEMBL4431366, “Identification of a benzo imidazole thiazole derivative as the specific irreversible inhibitor of protein tyrosine phosphatase” (Bioorg Med Chem Lett, 2016)
Active and inactive are the calls of the source. The calls are words filed in the database; no cut-off is given here.

Assays:
[1] = biological target: T1, Tyrosine-protein phosphatase non-receptor type 5 (Homo sapiens, UniProt P54829); assay: (§1) Inhibition of N-terminal His-tagged STEP catalytic domain (unknown origin) expressed in Escherichia coli BL21 (DE3) cells using p-nitrophenyl phosphate as substrate
T1 sequence (P54829 whole entry): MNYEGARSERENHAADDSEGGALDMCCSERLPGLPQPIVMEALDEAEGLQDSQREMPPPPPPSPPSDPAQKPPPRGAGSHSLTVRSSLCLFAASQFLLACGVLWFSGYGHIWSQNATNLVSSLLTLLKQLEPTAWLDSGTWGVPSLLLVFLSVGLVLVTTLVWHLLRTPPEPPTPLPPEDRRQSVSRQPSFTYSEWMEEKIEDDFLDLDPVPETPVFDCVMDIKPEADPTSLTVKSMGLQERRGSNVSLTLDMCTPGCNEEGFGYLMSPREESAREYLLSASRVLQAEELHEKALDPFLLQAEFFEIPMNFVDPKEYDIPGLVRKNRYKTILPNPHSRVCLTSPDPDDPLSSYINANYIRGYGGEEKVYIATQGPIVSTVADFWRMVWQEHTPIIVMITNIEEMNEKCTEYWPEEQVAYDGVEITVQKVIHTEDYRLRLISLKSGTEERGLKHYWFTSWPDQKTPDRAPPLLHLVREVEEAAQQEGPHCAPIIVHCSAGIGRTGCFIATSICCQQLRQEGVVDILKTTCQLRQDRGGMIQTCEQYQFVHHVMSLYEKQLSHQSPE

[2] = biological target: T2, Tyrosine-protein phosphatase non-receptor type 5 (Homo sapiens) (UniProt P54829); assay: as §1
T2 sequence (whole entry): T1 sequence (P54829 whole entry)

[3] = biological target: T3, Tyrosine-protein phosphatase non-receptor type 22 (Homo sapiens) (UniProt Q9Y2R2); assay: Time-dependent irreversible inhibition of N-terminal His-tagged LYP (1 to 294 residues) (unknown origin) expressed in Escherichia coli BL21 (DE3) cells preincubated with enzyme followed by p-nitrophenyl phosphate substrate addition
T3 sequence (whole entry): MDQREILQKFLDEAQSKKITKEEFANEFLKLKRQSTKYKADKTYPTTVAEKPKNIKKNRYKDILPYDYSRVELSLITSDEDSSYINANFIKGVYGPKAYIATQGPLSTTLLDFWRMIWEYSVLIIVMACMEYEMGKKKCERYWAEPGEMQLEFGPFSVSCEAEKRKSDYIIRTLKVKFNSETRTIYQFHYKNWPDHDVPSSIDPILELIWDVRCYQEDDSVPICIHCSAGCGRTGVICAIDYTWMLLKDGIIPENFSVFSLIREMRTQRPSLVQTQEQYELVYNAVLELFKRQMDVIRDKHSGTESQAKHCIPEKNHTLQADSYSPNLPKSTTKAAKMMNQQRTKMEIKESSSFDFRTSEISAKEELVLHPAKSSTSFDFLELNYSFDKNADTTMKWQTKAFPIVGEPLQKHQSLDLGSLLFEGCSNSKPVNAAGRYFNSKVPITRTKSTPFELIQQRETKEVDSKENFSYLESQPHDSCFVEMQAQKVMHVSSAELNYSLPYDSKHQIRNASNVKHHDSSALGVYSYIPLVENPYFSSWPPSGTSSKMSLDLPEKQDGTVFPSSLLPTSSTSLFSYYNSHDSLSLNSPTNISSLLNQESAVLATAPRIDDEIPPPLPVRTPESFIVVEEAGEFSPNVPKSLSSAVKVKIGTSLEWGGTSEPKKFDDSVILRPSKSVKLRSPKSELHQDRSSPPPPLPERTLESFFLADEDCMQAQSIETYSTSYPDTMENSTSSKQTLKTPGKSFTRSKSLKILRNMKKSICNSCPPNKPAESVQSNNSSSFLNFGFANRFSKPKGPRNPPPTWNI

[4] = biological target: T2, Tyrosine-protein phosphatase non-receptor type 5 (Homo sapiens)
Description: Time-dependent irreversible inhibition of N-terminal His-tagged STEP catalytic domain (unknown origin) expressed in Escherichia coli BL21 (DE3) cells at 100 uM preincubated with enzyme followed by p-nitrophenyl phosphate substrate addition

[5] = biological target: T1, Tyrosine-protein phosphatase non-receptor type 5; assay: (§2) Time-dependent irreversible inhibition of N-terminal His-tagged STEP catalytic domain (unknown origin) expressed in Escherichia coli BL21 (DE3) cells preincubated with enzyme followed by p-nitrophenyl phosphate substrate addition
[6] = biological target: T2, Tyrosine-protein phosphatase non-receptor type 5 (Homo sapiens); assay: as §2
[7] = biological target: T4, Protein phosphatase 1G (Homo sapiens) (UniProt O15355); assay: Time-dependent irreversible inhibition of N-terminal His-tagged PPM1G (unknown origin) expressed in Escherichia coli BL21 (DE3) cells at 80 uM preincubated with enzyme followed by p-nitrophenyl phosphate substrate addition
T4 sequence (whole entry): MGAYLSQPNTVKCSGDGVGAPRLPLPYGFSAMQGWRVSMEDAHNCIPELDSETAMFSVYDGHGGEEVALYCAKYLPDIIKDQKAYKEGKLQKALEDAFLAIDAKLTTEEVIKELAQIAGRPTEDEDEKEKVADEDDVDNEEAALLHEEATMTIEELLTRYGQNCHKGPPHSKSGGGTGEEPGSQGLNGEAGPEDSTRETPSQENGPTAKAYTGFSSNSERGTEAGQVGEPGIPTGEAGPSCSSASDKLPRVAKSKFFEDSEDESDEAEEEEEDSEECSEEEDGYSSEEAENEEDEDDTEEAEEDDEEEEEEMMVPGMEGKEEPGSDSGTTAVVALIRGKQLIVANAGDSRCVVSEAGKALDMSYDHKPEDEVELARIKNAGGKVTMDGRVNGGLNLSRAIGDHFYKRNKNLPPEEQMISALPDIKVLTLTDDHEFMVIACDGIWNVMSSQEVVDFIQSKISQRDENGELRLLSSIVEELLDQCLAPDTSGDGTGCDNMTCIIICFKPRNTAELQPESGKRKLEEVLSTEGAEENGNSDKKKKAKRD

[8] = biological target: T5, Tyrosine-protein phosphatase non-receptor type 9 (Homo sapiens) (UniProt P43378); assay: Time-dependent irreversible inhibition of N-terminal His-tagged MEG2 (277 to 583 residues) (unknown origin) expressed in Escherichia coli BL21 (DE3) cells preincubated with enzyme followed by p-nitrophenyl phosphate substrate addition
T5 sequence (whole entry): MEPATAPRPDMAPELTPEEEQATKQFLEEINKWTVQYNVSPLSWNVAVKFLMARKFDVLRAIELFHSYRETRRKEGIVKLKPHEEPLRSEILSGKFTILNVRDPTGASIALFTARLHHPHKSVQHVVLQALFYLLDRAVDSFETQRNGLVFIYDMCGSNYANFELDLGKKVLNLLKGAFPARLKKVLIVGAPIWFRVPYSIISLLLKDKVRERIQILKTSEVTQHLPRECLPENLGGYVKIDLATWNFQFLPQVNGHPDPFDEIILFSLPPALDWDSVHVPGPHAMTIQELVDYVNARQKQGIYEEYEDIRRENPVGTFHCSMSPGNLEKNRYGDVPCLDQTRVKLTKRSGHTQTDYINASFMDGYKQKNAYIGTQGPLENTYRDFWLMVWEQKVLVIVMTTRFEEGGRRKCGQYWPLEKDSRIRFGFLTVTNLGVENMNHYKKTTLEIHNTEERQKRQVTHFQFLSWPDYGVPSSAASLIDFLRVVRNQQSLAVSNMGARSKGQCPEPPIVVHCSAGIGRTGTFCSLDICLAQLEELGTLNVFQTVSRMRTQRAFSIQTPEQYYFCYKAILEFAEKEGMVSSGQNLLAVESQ

[9] = biological target: T6, Tyrosine-protein phosphatase non-receptor type 1 (Homo sapiens) (UniProt P18031); assay: Time-dependent irreversible inhibition of N-terminal His-tagged PTP1B (unknown origin) expressed in Escherichia coli BL21 (DE3) cells preincubated with enzyme followed by p-nitrophenyl phosphate substrate addition
T6 sequence (whole entry): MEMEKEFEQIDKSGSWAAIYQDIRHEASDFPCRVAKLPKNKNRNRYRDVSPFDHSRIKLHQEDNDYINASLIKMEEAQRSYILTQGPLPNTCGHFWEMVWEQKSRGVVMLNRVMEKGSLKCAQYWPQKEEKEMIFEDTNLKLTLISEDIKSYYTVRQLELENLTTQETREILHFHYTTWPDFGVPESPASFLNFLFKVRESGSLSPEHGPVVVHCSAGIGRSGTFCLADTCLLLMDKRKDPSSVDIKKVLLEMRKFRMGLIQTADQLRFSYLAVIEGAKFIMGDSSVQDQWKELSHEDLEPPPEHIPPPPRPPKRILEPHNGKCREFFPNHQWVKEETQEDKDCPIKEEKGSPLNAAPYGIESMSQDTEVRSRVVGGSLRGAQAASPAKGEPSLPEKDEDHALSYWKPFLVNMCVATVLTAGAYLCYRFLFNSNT

[10] = biological target: T7, Protein phosphatase 1B (Homo sapiens) (UniProt O75688); assay: Time-dependent irreversible inhibition of N-terminal His-tagged PPM1B (unknown origin) expressed in Escherichia coli BL21 (DE3) cells at 80 uM preincubated with enzyme followed by p-nitrophenyl phosphate substrate addition
T7 sequence (whole entry): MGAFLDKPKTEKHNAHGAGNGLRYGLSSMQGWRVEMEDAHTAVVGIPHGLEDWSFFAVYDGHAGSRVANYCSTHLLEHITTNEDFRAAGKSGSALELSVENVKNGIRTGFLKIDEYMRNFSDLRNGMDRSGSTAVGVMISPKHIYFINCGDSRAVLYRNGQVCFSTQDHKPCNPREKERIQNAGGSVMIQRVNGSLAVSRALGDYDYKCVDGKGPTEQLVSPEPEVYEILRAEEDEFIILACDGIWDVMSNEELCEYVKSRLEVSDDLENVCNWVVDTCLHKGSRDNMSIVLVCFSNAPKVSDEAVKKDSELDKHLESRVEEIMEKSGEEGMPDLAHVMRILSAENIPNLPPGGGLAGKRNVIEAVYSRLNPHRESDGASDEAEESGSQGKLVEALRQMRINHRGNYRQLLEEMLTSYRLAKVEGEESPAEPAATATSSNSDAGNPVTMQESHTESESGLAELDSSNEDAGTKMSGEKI

[11] = biological target: T8, Protein phosphatase 1A (Homo sapiens) (UniProt P35813); assay: Time-dependent irreversible inhibition of N-terminal His-tagged PPM1A (unknown origin) expressed in Escherichia coli BL21 (DE3) cells at 80 uM preincubated with enzyme followed by p-nitrophenyl phosphate substrate addition
T8 sequence (whole entry): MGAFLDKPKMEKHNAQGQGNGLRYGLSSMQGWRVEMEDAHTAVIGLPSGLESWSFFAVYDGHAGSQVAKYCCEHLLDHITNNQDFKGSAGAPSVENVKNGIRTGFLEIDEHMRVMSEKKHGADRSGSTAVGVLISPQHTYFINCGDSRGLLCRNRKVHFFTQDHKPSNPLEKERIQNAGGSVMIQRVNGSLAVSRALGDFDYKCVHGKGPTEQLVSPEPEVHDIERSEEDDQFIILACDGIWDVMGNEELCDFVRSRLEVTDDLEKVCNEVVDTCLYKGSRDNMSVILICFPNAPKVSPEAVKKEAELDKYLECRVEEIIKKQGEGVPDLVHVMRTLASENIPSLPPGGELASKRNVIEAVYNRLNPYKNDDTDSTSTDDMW

[12] = tested on: Bacteria; assay: Time-dependent irreversible inhibition of N-terminal His-tagged bacterial YOPH expressed in Escherichia coli BL21 (DE3) cells preincubated with enzyme followed by p-nitrophenyl phosphate substrate addition

Work on `Cc1cc2cc(OCC(=O)O)ccc2n1-c1ccc(Cl)cc1` yielded an IC50 [1] greater than 300 µM.

Work on `O=C(O)c1ccc(N2C(=O)c3ccc(Br)cc3C2=O)cc1O` yielded an IC50 [1] of 273 µM.

Work on `O=C(CSc1nc2cc(Cl)ccc2o1)Nc1ccc(C(=O)O)cc1` yielded an IC50 [1] greater than 300 µM.

`Cc1cc(/C=c2/sc3nc4ccccc4n3c2=O)c(C)n1-c1cccc(C(=O)O)c1` was tested, and the IC50 [1] was 8.3 µM, the inhibition [2] was “Dose-dependent effect” and the K [3] was 0.0272 min⁻¹. The TDI [4] was “Active”, the Ki [5] was 21.6 µM and the K [6] was 0.0439 min⁻¹. For the same compound, the Kinact [6] was 0.068 s⁻¹, the TDI [7] was “Active” and the K [8] was 0.0463 min⁻¹. For the same compound, the K [9] was 0.0859 min⁻¹, the TDI [10] was “Active” and the TDI [11] was “Active”. It also gave a K [12] of 0.0486 min⁻¹.

Work on `Cc1ccc([N+](=O)[O-])cc1-c1ccc(/C=c2\sc3nc4ccccc4n3c2=O)o1` yielded an IC50 [1] greater than 300 µM.

With `O=C(O)c1cc2ccoc2cc(C(=O)O)c1=O` the IC50 [1] was greater than 300 µM.

`COc1cc(/C=c2/sc3nc4ccccc4n3c2=O)cc(Cl)c1OCc1cccc(C(=O)O)c1` was tested, and the IC50 [1] was greater than 300 µM.

Compound `O=C(O)c1cccc(/C=c2/sc3nc4ccccc4n3c2=O)c1` has an IC50 [1] greater than 300 µM.
